Results reported in the CheMixHub viscosity set.

Assay: xn = mol fraction of the nth substance listed

CCC(=O)OC + Clc1ccccc1
viscosity [mPa·s], 101.3 kPa
Details	308.15 K	318.15 K
x1 = 0.0485	0.646	0.598
x1 = 0.0993	0.635	0.589
x1 = 0.2038	0.612	0.57
x1 = 0.2614	0.599	0.559
x1 = 0.4087	0.567	0.531
x1 = 0.4556	0.556	0.522
x1 = 0.6041	0.523	0.493
x1 = 0.7011	0.503	0.475
x1 = 0.8064	0.479	0.454
x1 = 0.9054	0.457	0.434
x1 = 0.9486	0.448	0.426

N[C@@H](Cc1ccc(O)cc1)C(=O)O + O
303 K, 100 kPa
Details	viscosity [mPa·s]
x1 = 0.00933	0.8931
x1 = 0.00952	0.911
x1 = 0.00967	0.9501
x1 = 0.00975	0.9616
x1 = 0.0098	0.9874
x1 = 0.00983	1

CC(C)C(C)C + CCCCCCCCCCCC
298 K, 101.33 kPa
Details	viscosity [mPa·s]
x1 = 0.101	1.237
x1 = 0.2039	1.127
x1 = 0.297	1.018
x1 = 0.4013	0.898
x1 = 0.4985	0.7936
x1 = 0.6035	0.6871
x1 = 0.7426	0.5433
x1 = 0.8116	0.4795
x1 = 0.9014	0.4023

CCCOCCO + CO
298.15 K, 101.33 kPa
Details	viscosity [mPa·s]
x1 = 0.0024	0.553
x1 = 0.0177	0.581
x1 = 0.041	0.62
x1 = 0.0504	0.644
x1 = 0.0697	0.673
x1 = 0.0903	0.729
x1 = 0.1252	0.801
x1 = 0.159	0.865
x1 = 0.1826	0.914
x1 = 0.2208	0.989
x1 = 0.2613	1.084
x1 = 0.2874	1.149
x1 = 0.3049	1.199
x1 = 0.341	1.284
x1 = 0.3895	1.394
x1 = 0.4426	1.499
x1 = 0.4816	1.577
x1 = 0.5329	1.68
x1 = 0.5596	1.737
x1 = 0.6366	1.878
x1 = 0.6677	1.927
x1 = 0.7153	2.014
x1 = 0.7701	2.115
x1 = 0.8053	2.16
x1 = 0.8437	2.194
x1 = 0.8812	2.248
x1 = 0.9415	2.323
x2 = 0.0116	2.347

N#Cc1ccccc1 + ClC(Cl)(Cl)Cl
viscosity [mPa·s], 101 kPa
Details	293.15 K	298.15 K	303.15 K	313.15 K	323.15 K
x1 = 0.005	0.986	0.91	0.845	0.748	0.669
x1 = 0.009	1.008	0.934	0.871	0.772	0.694
x1 = 0.045	1.005	0.929	0.863	0.769	0.691

CC(C)C(C)C + CCCCCCCCCCCCCC
298 K, 101.33 kPa
Details	viscosity [mPa·s]
x1 = 0.1	1.884
x1 = 0.2006	1.669
x1 = 0.3044	1.451
x1 = 0.4033	1.246
x1 = 0.503	1.051
x1 = 0.6031	0.8719
x1 = 0.701	0.7123
x1 = 0.8016	0.5711
x1 = 0.9008	0.4356

O=P([O-])([O-])[O-].[K+].[K+].[K+] + O
viscosity [mPa·s], 101 kPa
Details	x1 = 0.0018	x1 = 0.0054	x1 = 0.0089	x1 = 0.012	x1 = 0.016
298.15 K	0.9999	1.068	1.197	1.397	1.648
303.15 K	0.8476	0.9587	1.107	1.268	1.492
308.15 K	0.7639	0.8485	0.9715	1.123	1.341

C[N+](C)(C)C.NCC(=O)[O-] + OCC(O)CO
303 K, 101 kPa
Details	viscosity [mPa·s]
x1 = 0.065	397.5
x1 = 0.13	390.8
x1 = 0.21	380.1
x1 = 0.29	369.3
x1 = 0.48	346.5
x1 = 0.71	327.7

O=S(=O)(O)CCN1CCOCC1 + O
viscosity [mPa·s], 101.3 kPa
Details	x1 = 0.003662	x1 = 0.0073	x1 = 0.00959	x1 = 0.01075	x1 = 0.01417	x1 = 0.01767
298.15 K	0.918	0.98	1.006	1.035	1.101	1.153
308.15 K	0.743	0.792	0.814	0.836	0.893	0.932
318.15 K	0.616	0.657	0.676	0.693	0.737	0.772

CCCOCCO + CC(C)O
298.15 K, 101.33 kPa
Details	viscosity [mPa·s]
x1 = 0.0175	2.056
x1 = 0.0326	2.039
x1 = 0.0724	2.009
x1 = 0.0909	1.994
x1 = 0.1266	1.98
x1 = 0.1696	1.971
x1 = 0.2052	1.967
x1 = 0.249	1.967
x1 = 0.295	1.97
x1 = 0.3499	1.977
x1 = 0.398	1.993
x1 = 0.4072	1.997
x1 = 0.4661	2.019
x1 = 0.5167	2.041
x1 = 0.556	2.061
x1 = 0.6058	2.084
x1 = 0.6612	2.119
x1 = 0.7297	2.159
x1 = 0.7751	2.192
x1 = 0.8315	2.23
x1 = 0.8979	2.275
x1 = 0.9565	2.318

CCCOCCO + OCCOCCO
101 kPa
Details	viscosity [mPa·s]
293.15 K, x1 = 0.0522	34.91
293.15 K, x1 = 0.1049	31.33
293.15 K, x1 = 0.2035	25.38
293.15 K, x1 = 0.2926	20.65
293.15 K, x1 = 0.3996	15.84
293.15 K, x1 = 0.4555	13.73
293.15 K, x1 = 0.4975	12.32
293.15 K, x1 = 0.5488	10.8
293.15 K, x1 = 0.5924	9.666
293.15 K, x1 = 0.7043	7.291
293.15 K, x1 = 0.7921	5.699
293.15 K, x1 = 0.9015	3.905
293.15 K, x1 = 0.9536	3.147
298.15 K, x1 = 0.053	26.82
298.15 K, x1 = 0.1014	24.15
298.15 K, x1 = 0.1985	19.48
298.15 K, x1 = 0.3104	15.16
298.15 K, x1 = 0.4057	12.25
298.15 K, x1 = 0.4511	11.07
298.15 K, x1 = 0.4975	9.977
298.15 K, x1 = 0.5511	8.842
298.15 K, x1 = 0.6049	7.816
298.15 K, x1 = 0.6981	6.239
298.15 K, x1 = 0.8017	4.717
298.15 K, x1 = 0.89	3.562
298.15 K, x1 = 0.9483	2.89
303.15 K, x1 = 0.0608	19.27
303.15 K, x1 = 0.1099	17.35
303.15 K, x1 = 0.1927	14.48
303.15 K, x1 = 0.3017	11.38
303.15 K, x1 = 0.3982	9.174
303.15 K, x1 = 0.4498	8.171
303.15 K, x1 = 0.4916	7.433
303.15 K, x1 = 0.5511	6.487
303.15 K, x1 = 0.6073	5.701
303.15 K, x1 = 0.7083	4.5
303.15 K, x1 = 0.7941	3.671
303.15 K, x1 = 0.9072	2.776
303.15 K, x1 = 0.9353	2.579

CCCOCCO + OCCOCCOCCOCCO
101 kPa
Details	viscosity [mPa·s]
293.15 K, x1 = 0.0542	48.17
293.15 K, x1 = 0.1014	43.86
293.15 K, x1 = 0.201	35.31
293.15 K, x1 = 0.3003	27.79
293.15 K, x1 = 0.3986	21.51
293.15 K, x1 = 0.4476	18.81
293.15 K, x1 = 0.5026	16.04
293.15 K, x1 = 0.5513	13.99
293.15 K, x1 = 0.6093	11.77
293.15 K, x1 = 0.6955	9.005
293.15 K, x1 = 0.8069	6.17
293.15 K, x1 = 0.8986	4.294
293.15 K, x1 = 0.9299	3.73
298.15 K, x1 = 0.0471	40.86
298.15 K, x1 = 0.1215	35.33
298.15 K, x1 = 0.2008	29.71
298.15 K, x1 = 0.2987	23.76
298.15 K, x1 = 0.4022	18.52
298.15 K, x1 = 0.4601	16.06
298.15 K, x1 = 0.5018	14.48
298.15 K, x1 = 0.5507	12.73
298.15 K, x1 = 0.5961	11.26
298.15 K, x1 = 0.6975	8.355
298.15 K, x1 = 0.7954	5.941
298.15 K, x1 = 0.9023	3.732
298.15 K, x1 = 0.947	2.996
303.15 K, x1 = 0.0564	32.24
303.15 K, x1 = 0.1139	28.91
303.15 K, x1 = 0.2071	23.96
303.15 K, x1 = 0.304	19.47
303.15 K, x1 = 0.3911	15.98
303.15 K, x1 = 0.4512	13.87
303.15 K, x1 = 0.5003	12.29
303.15 K, x1 = 0.5411	11.08
303.15 K, x1 = 0.5977	9.543
303.15 K, x1 = 0.7007	7.098
303.15 K, x1 = 0.794	5.232
303.15 K, x1 = 0.8948	3.54
303.15 K, x1 = 0.9402	2.883
